Measured values: US5449674A, “2-,3-,5-, and/or 8-substituted dibenzoxazepine compounds, pharmaceutical compositions and methods for treating pain” (G. D. Searle & Co., priority 1994, dated 1995)
In brackets after ≈: the same amount, converted by molar mass. Counter-ions that a name gives are not always drawn. Like-named read-outs stand apart in the source and are kept apart here.

Experiments:
[1] = water solubility; assay type: physicochemical; settings: for solubility: water
Description: The title compound was determined to have a high water solubility (>80 mg/mL) by methods known by those of skill in the art.

[2] = test system: phenylbenzoquinone (PBQ)-induced writhing in mice; test: Writhing Assay (PBQ-induced writhing, analgesic activity in mice); assay type: in vivo, Charles River male albino mice; settings: for Writhing assay, number of mice out of nine or ten in which the test compound produced analgesia, I.G. / Writhing assay, number of mice out of nine or ten in which the test compound produced analgesia, S.C.: 30 mg/kg, PBQ i.p. 30 min later; for ED50: Mus musculus
Text: The Writhing Assay is one of the most widely-used experimental procedures for measuring the analgesic activity of different narcotic and nonnarcotic analgesic agents, and involves the continuous, chemically-induced pain of visceral origin to an animal, such as a mouse or rat. [Gyires et al., Arch. int. Pharmacodyn, 267, 131-140 (1984); C. Vander Wende et al., Fed. Proc., 15, 494 (1956); Koster et al., Fed. Proc., 18, 412 (1959); and Witken et al., J. Pharmacol. exp. Ther., 133, 400-408 (1961).]Chemicals which may be used to induce this pain include phenylbenzoquinone (PBQ) and acetic acid. As a result of the chemical irritation to the animal, a characteristic stretching and writhing of the animal (dorsiflexion of the animal's back, extension of its hindlimbs and the strong contraction of its abdominal musculature) will generally occur. […] Drugs which reduce the number of writhes of the animal appear to restore the normal nociceptive threshold of the animal.
Charles River male albino mice, weighing 20 to 30 grams, were used in this assay.
Thirty minutes after subcutaneous or intragastric administration to ten mice of 30 mg per kilogram of body weight of a compound of the present invention ("test compound"), […] per 10 g of body weight of a 0.025% w/v solution of PBQ was injected intraperitoneally into each mouse. Ten mice which were given saline in place of a test compound of the invention were used as a control group.
Five minutes later, each mouse was individually placed into a glass beaker for observation, and the number of writhes occurring during the following ten-minute period was counted.
A test compound was considered to have produced analgesia in a mouse if, in accordance with the conditions set forth above, and under the test criteria employed for this assay, after the administration of 30 mg per kilogram of body weight of a compound of the present invention to the mouse, the number of writhes elicited by a mouse injected with PBQ was equal to, or less than, one-half the median number of writhes recorded for the saline-treated control group of mice that day, as described by Taber in "Predictive Value of Analgesic Assays in Mice and Rats," Advances in Biochemical Psychopharmacology, 8, 191 (1974).
The results for the particular compounds of the present invention analyzed in this assay, and discussed in the examples identified below which correspond thereto, are presented in Table I hereinbelow as fractions under the heading "WRITHING ASSAY." The fractions indicate the number of mice, out of ten, in which the test compound produced analgesia.
The standard initial screening dose of a test compound employed in this assay was […] for both routes of administration. If this initial screening dose of the test compound produced analgesia in seven of ten mice, then the effect of additional doses of the test compound on the writhing response was evaluated, and then the ED50 dose was generally calculated. (The slopes of the dose-response curves for all test compounds analyzed were compared as described by Tallarida and Murray, Manual of Pharmacologic Calculations, Page 11 (Springer Verlag, New York, 1981)).

[3] = molecular target: T1, prostaglandin E2-induced contractions of segments of guinea pig ileum (Cavia porcellus, UniProt A0A286XHJ6); test: Prostaglandin (PGE) Antagonism Assay; assay type: cell-based; settings: isolated ileum, 37° C., read-out: PGE in guinea pig ileum pA2 (converted)
T1 construct: Segments of ileum about 2 cm long were then cut and mounted in a 10 mL tissue bath; from tissue; host or cells: guinea pig ileum segments
T1 sequence (A0A286XHJ6 1-405): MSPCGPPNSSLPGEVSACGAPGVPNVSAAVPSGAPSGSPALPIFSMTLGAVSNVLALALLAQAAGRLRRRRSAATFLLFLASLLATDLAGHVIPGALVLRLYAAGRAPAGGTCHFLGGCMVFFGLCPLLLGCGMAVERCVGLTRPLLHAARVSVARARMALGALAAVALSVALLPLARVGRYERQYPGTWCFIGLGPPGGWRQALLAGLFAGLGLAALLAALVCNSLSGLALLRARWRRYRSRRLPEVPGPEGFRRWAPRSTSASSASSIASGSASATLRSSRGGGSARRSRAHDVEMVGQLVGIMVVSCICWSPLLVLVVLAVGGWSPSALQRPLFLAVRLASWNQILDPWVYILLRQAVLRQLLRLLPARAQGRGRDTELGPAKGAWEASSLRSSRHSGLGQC
Description: In order to determine the effectiveness of several of the compounds of the present invention ("test compounds") as prostaglandin E2 antagonists,a prostaglandin antagonism assay was conducted, as described below, to determine the ability of these compounds to inhibit prostaglandin E2 -induced contractions of segments of guinea pig ileum.
Male albino guinea pigs weighing 200 to 500 grams were sacrificed by cervical dislocation. The ilea were then quickly removed from the guinea pigs and placed in a modified Tyrode solution, a solution which is known to those skilled in the art, containing one-half of the usual amount of magnesium ions.
Segments of ileum about 2 cm long were then cut and mounted in a 10 mL tissue bath containing the modified Tyrode solution. The solution was maintained at 37° C. and aerated with a gaseous mixture of 95% oxygen and 5% carbon dioxide. Data for a control prostaglandin E2 dose response curve plotting concentration of prostaglandin E2 versus the intensity of contractions, detected isotonically, was then obtained by experimentally adjusting the dose of the prostaglandin E2 being injected into the tissue bath, in a manner known by those of skill in the art. […]
A dose ratio of EC50 doses was then calculated from the results of each test in a manner known by those of skill in the art. […]

[4] = test system: prostaglandins, isolated smooth muscle preparations; settings: cited from earlier work
[5] = test system: micturition reflex; settings: urethane-anesthetized rats; cited from earlier work

| Structure (SMILES) | Writhing assay, number of mice out of nine or ten in which the test compound produced analgesia, I.G. ([2]; intragastric) | Writhing assay, number of mice out of nine or ten in which the test compound produced analgesia, S.C. ([2]; subcutaneous) | other results |
| --- | --- | --- | --- |
| CCS(=O)(=O)CCC(=O)NNC(=O)N1Cc2ccccc2Oc2ccc(Cl)cc21 [8-chlorodibenz[b,f][1,41oxazepine-10(11H)-carboxylic acid, 2-[3(ethylsulfonyl)-1-oxopropyl]hydrazide, reference compound] | – | – | solubility ([1]; comparison compound): 80 µg/mL (≈ 183 µM) |
| O=C(O)/C=C\C(=O)N1Cc2ccccc2Oc2ccc(Cl)cc21 [Example 2, 4-(8-chloro-10,11-dihydrodibenz[b,f]-oxazepin-10-yl)-4-oxo-2Z-butenoic acid] | 1/10 | 4/10 | – |
| CCCCOC(=O)/C=C\C(=O)N1Cc2ccccc2Oc2ccc(Cl)cc21 [Example 3, Butyl 4-(8-chloro-10,1! -dihydrodibenz[b,f]-oxazepin-10-yl)-4-oxo-2Z-butenoate] | 6/10 | 4/10 | – |
| CCCCOC(=O)/C=C/C(=O)N1Cc2ccccc2Oc2ccc(Cl)cc21 [Example 4, Butyl 4-(8-chloro-10,11-dihydrodibenz[b,f]-oxazepin-10-yl)-4-oxo-2E-butenoate] | 6/10 | 6/10 | – |
| CCCCNC(=O)/C=C\C(=O)N1Cc2ccccc2Oc2ccc(Cl)cc21 [Example 5] | 4/10 | 6/10 | – |
| COC(=O)/C=C/C(=O)N1Cc2ccccc2Oc2ccc(Cl)cc21 [Example 7, Methyl 4-(8-chloro-10,11-dihydrodibenz[b,f]-oxazepin-10-yl)-4-oxo-2E-butenoate] | 3/10 | 6/9 | – |
| CN(C)CCNC(=O)/C=C/C(=O)N1Cc2ccccc2Oc2ccc(Cl)cc21 [Example 8, 4-(8-chloro-10,11-dihydrodibenz[b,f]oxazepin-10-yl) -N-[2-(dimethylamino)ethyl]-4-oxo-2E-butenamide, monohydrochloride] | – | – | Kb [3]: 1.86 µM; ED50 ([2]; po, intragastric, read-out: Writhing assay ED50 Dose, I.G.): 8.3 mg/kg; ED50 ([2]; sc, subcutaneous, read-out: Writhing assay ED50 Dose, S.C.): 8.3 mg/kg; Writhing Assay potency ranking (in words) ([2]; among compounds tested): most potent compound of the invention tested in this assay; water solubility (in words) [1]: highly water soluble; solubility [1]: > 80000 µg/mL |
| O=C(CCC(=O)N1Cc2ccccc2Oc2ccc(Cl)cc21)NCc1ccncc1 [Example 9, 8-chloro-γ-oxo-N-(4-pyridinylmethyl)dibenz[b,f]-[1,4]oxazepine-10(11)-butanamide] | 6/10 | – | Kb [3]: 2.4 µM |
| CN(C)CCNC(=O)CCC(=O)N1Cc2ccccc2Oc2ccc(Cl)cc21 [Example 10, 8-chloro-N-[2-(dimethylamino)ethyl]-γ-oxodibenz [b,f][1,4]oxazepine-10(11)-butanamide] | 6/9 | – | – |
| O=C(Cc1ccccc1)NNC(=O)N1Cc2ccccc2Oc2ccc(Cl)cc21 [SC-18637] | – | – | inhibition of stimulant actions of prostaglandins (in words) [4]: inhibit the stimulant actions of prostaglandins on isolated smooth muscle preparations |
| CC(=O)NNC(=O)N1Cc2ccccc2Oc2ccc(Cl)cc21 [SC-19220] | – | – | inhibition of stimulant actions of prostaglandins (in words) [4]: inhibit the stimulant actions of prostaglandins on isolated smooth muscle preparations; bladder capacity (in words) [5]: increased the bladder capacity; voiding efficiency of micturition (in words) [5]: reduced the voiding efficiency of micturition |
